Read-outs that look alike come from different tables or passages of the source.

What all share (format): cell-based
The test system of assay [1] is Target C CJ mRNA. Nature of the assay: Gene panel canonical junction qPCR assay, Target C. As to conditions: decrease in CJ mRNA levels, gene panel; read-out: Target C IC50. The protocol:
The expression of a target mRNA was measured by detecting the formation of an exon-exon junction in the canonical transcript (CJ). A compound mediated exon-inclusion event was detected by observing an increase in formation of a new junction with an alternative exon (AJ). Real-time qPCR assays were used to detect these splicing switches and interrogate the potency of various compounds towards different target genes. A high-throughput real time quantitative PCR (RT-qPCR) assay was developed to measure these two isoforms of the mRNA (CJ and AJ) for an exemplary gene, HTT, together with a control housekeeping gene, GAPDH or GUSB or PPIA, used for normalization. Briefly, the A673 or K562 cell line was treated with various compounds described herein (e.g., compounds of Formula (I)). After treatment, the levels of the HTT mRNA targets were determined from each sample of cell lysate by cDNA synthesis followed by qPCR. The A673 cell line was cultured in DMEM with 10% FBS. Cells were diluted with full growth media and plated in a 96-well plate (15,000 cells in 100 ul media per well). The plate was incubated at 37° C. with 5% CO2 for 24 hours to allow cells to adhere. An 11-point 3-fold serial dilution of the compounds was made in DMSO then diluted in media in an intermediate plate. Compounds were transferred from the intermediate plate to the cell plate with the top dose at a final concentration of 10 uM in the well. Final DMSO concentration was kept at or below 0.25%. The cell plate was returned to the incubator at 37° C. with 5% CO2 for an additional 24 hours. The K562 cell line was cultured in IMDM with 10% FBS. For K562, cells were diluted with full growth media and plated in either a 96-well plate (50,000 cells in 50 uL media per well) or a 384-well plate (8,000-40,000 cells in 45 uL media per well). An 11-point 3-fold serial dilution of the compounds were made in DMSO then diluted in media in an intermediate plate. Compound was transferred from the intermediate plate to the cell plate with the top dose at a final concentration of 10 uM in the well. Final DMSO concentration was kept at or below 0.25%. Final volume was 100 uL for 96-well plate and 50 uL for 384-well plate. The cell plate was then placed in an incubator at 37° C. with 5% CO2 for 24 hours. The cells were then gently washed with 50 uL-100 uL cold PBS before proceeding to addition of lysis buffer. 30 uL-50 uL of room temperature lysis buffer with DNAse I (and optionally RNAsin) was added to each well. Cells were shaken/mixed thoroughly at room temperature for 5-10 minutes for lysis to take place and then 3 uL-5 uL of room temperature stop solution was added and wells were shaken/mixed again. After 2-5 minutes, the cell lysate plate was transferred to ice for RT-qPCR reaction setup. The lysates could also be frozen at −80° C. for later use. In some cases, a direct lysis buffer was used. An appropriate volume of 3× lysis buffer (10 mM Tris, 150 mM NaCl, 1.5%-2.5% Igepal and 0.1-1 U/uL RNAsin, pH 7.4) was directly added to either K562 or A673 cells in media and mixed by pipetting 3 times. The plates were then incubated at room temperature with shaking/rocking for 20-50 minutes to allow for lysis to take place. After this time, the cell lysate plate was transferred to ice to set up for the RT-qPCR reactions. The lysates could also be frozen at −80° C. for later use. To set up 10 uL RT-qPCR reactions, cell lysates were transferred to 384-well qPCR plates containing the master mix according to the table below. The plates were sealed, gently vortexed, and spun down before the run. The volumes were adjusted accordingly in some instances where the reaction was carried in 20 uL. The table below summarizes the components of the RT-qPCR reactions: The RT-qPCR reaction was performed using a QuantStudio (ThermoFisher) under the following fast cycling conditions. All samples and standards were analyzed at least in duplicate.

Assay [2] deals with HTT mRNA. As to the kind of experiment: Splicing assay (RT-qPCR) monitoring HTT canonical junction (CJ) and alternative junction (AJ) mRNA isoforms. Conditions: A673 or K562 cells, 24 h treatment, top dose 10 uM. An outline of the steps:
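A673 or K562 cells treated 24 h at 37 °C with an 11-point 3-fold dilution (top 10 uM final, DMSO ≤0.25%). Lysates assayed by one-step RT-qPCR for HTT CJ and AJ isoforms, normalized to GAPDH, GUSB (K562) or PPIA (A673).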
In general terms: Quantitative PCR measures a nucleic acid by following its amplification.

Assay [3] has as its system HTT CJ mRNA. As to the kind of experiment: Gene panel canonical junction qPCR assay, HTT. Conditions: decrease in CJ mRNA levels, gene panel; read-out: HTT IC50. An outline of the steps: (§1)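 A673 or K562 cells were treated for 24 h at 37 °C with an 11-point 3-fold dilution, top dose 10 uM, DMSO ≤0.25%. Canonical junction mRNA in lysates was quantified by one-step RT-qPCR and normalized to GAPDH, GUSB or PPIA.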

The test system of assay [4] is SMN2 CJ mRNA. As to the kind of experiment: Gene panel canonical junction qPCR assay, SMN2. Conditions: decrease in CJ mRNA levels, gene panel; read-out: SMN2 IC50. Summed up:
as §1

Setting [5] is: decrease in CJ mRNA (50% response), read-out: HTT CJ AC50.
The mark [6] stands for this setting: increase in AJ mRNA (50% response), read-out: HTT AJ AC50.

Broadly, the IC50 is the concentration that gives 50% inhibition. By AC50 is commonly meant the concentration giving half of the maximal activity seen. For `Cc1cc(-c2ccc3c(=O)n(N4CCN(C)CC4)cnc3c2)cc2cn(C)nc12` [Compound 175, 7-(2,7-dimethyl-2H-indazol-5-yl)-3-(4-methylpiperazin-1-yl)quinazolin-4(3H)-one], the IC50 in assay [1] is > 10000 nM; in assay [3], 1000 to 10000 nM; in assay [4], 1000 to 10000 nM. In addition, the AC50 in assay [2] (setting [5]) was > 10000 nM; in assay [2] (setting [6]), 1000 to 10000 nM.
Turning to `Cc1cn2cc(-c3ccc4c(=O)n(C5CCN(C)CC5)cnc4c3)c(C)cc2n1` [Compound 246], the IC50 in assay [1], in assay [3] and in assay [4] was 1000 to 10000 nM in each case. In addition, the AC50 in assay [2] (setting [5]) and in assay [2] (setting [6]) was 1000 to 10000 nM throughout.
On to `Cc1cn2nc(-c3ccc4c(=O)n(C5CCNCC5)cnc4c3)nc2c(C)n1` [Compound 287, 7-{6,8-dimethyl-[1,2,4]triazolo[1,5-a]pyrazin-2-yl}-3-(piperidin-4-yl)quinazolin-4-one], for which the IC50 in assay [1] is 100 to 1000 nM; in assay [3], 100 to 1000 nM; in assay [4], < 100 nM. Moreover, the concentration at half-maximal activity (AC50) in assay [2] (setting [5]) and in assay [2] (setting [6]) was 100 to 1000 nM in each case.
Consider `Cc1cn2nc(-c3ccc4c(c3)CCN(C3CCNC3)C4=O)cc(C)c2n1` (centres unmarked) [Compound 269, 6-{2,8-dimethylimidazo[1,2-b]pyridazin-6-yl}-2-(pyrrolidin-3-yl)-3,4-dihydroisoquinolin-1-one], for which the IC50 in assay [1] was > 10000 nM; in assay [3], > 10000 nM; in assay [4], 1000 to 10000 nM. The AC50 in assay [2] (setting [5]) and in assay [2] (setting [6]) was > 10000 nM in each case.
Consider `CN1CCC(n2cnc3cc(-c4cc(F)c5nn(C)cc5c4)ccc3c2=O)CC1` [Compound 209, 7-(7-fluoro-2-methyl-2H-indazol-5-yl)-3-(1-methylpiperidin-4-yl)quinazolin-4(3H)-one], for which the figures for the IC50 in assay [1], in assay [3] and in assay [4] were 1000 to 10000 nM, 1000 to 10000 nM and < 100 nM, respectively. The AC50 fell in the range of 1000 to 10000 nM in assay [2] (setting [5]) and 100 to 1000 nM in assay [2] (setting [6]).
With `Cc1cn2nc(-c3ccc4c(=O)n(C5CCNC(C)(C)C5)ncc4c3)cc(C)c2n1` (centres unmarked) [Compound 279], the IC50 in assay [1] was 100 to 1000 nM; in assay [3], 100 to 1000 nM; in assay [4] it was < 100 nM. Also, the AC50 in assay [2] (setting [5]) and in assay [2] (setting [6]) was 100 to 1000 nM in each case.
For the compound `Cn1cc2cc(-c3ccc4c(=O)n(C5CCNCC5)cnc4c3)cc(F)c2n1` [Compound 206, 7-(7-fluoro-2-methyl-2H-indazol-5-yl)-3-(piperidin-4-yl)quinazolin-4(3H)-one], the IC50 in assay [1] was 100 to 1000 nM; in assay [3], 100 to 1000 nM; in assay [4] it was < 100 nM. The AC50 in assay [2] (setting [5]) and in assay [2] (setting [6]) was 100 to 1000 nM in each case.
Regarding `Cc1cn2nc(-c3ccc4nc(N5CCNC6(CC6)C5)[nH]c(=O)c4c3)cc(C)c2n1` [Compound 190], the IC50 in assay [1], in assay [3] and in assay [4] was 100 to 1000 nM in each case. Besides, the AC50 in assay [2] (setting [5]) and in assay [2] (setting [6]) was 100 to 1000 nM each time.
`Cn1cc2cc(-n3cnc4cc(C5CCNCC5)ccc4c3=O)ccc2n1` [Compound 172, 3-(2-methyl-2H-indazol-5-yl)-7-(piperidin-4-yl)quinazolin-4(3H)-one]: the IC50 in assay [1], in assay [3] and in assay [4] was > 10000 nM each time. The AC50 in assay [2] (setting [5]) and in assay [2] (setting [6]) was > 10000 nM each time.
Turning to `Cn1cc2cc(-c3ccc4c(c3)CCN(C3CCNCC3)C4=O)cc(F)c2n1` [Compound 225], the IC50 in assay [1], in assay [3] and in assay [4] was > 10000 nM in each case. The concentration at half-maximal activity (AC50) in assay [2] (setting [5]) and in assay [2] (setting [6]) was > 10000 nM in each case.
Regarding `CN1CCC(n2cnc3cc(-c4cn[nH]c4)ccc3c2=O)CC1` [Compound 299], the IC50 in assay [1], in assay [3] and in assay [4] was > 10000 nM throughout. Also, the AC50 in assay [2] (setting [5]) and in assay [2] (setting [6]) was > 10000 nM throughout.
With `Cc1cn2cc(-c3ccc4c(=O)n(C5CCNCC5)cnc4c3)cc(F)c2n1` [Compound 205, 7-(8-fluoro-2-methylimidazo[1,2-a]pyridin-6-yl)-3-(piperidin-4-yl)quinazolin-4(3H)-one], the IC50 in assay [1] was 100 to 1000 nM; in assay [3], 100 to 1000 nM; in assay [4], < 100 nM. Also, the AC50 in assay [2] (setting [5]) and in assay [2] (setting [6]) was 100 to 1000 nM throughout.
Regarding `Cc1cn2cc(-c3ccc4c(c3)CCN(C3CCNCC3)C4=O)cc(Cl)c2n1` [Compound 216], the IC50 in assay [1] was 1000 to 10000 nM; in assay [3], 1000 to 10000 nM; in assay [4], < 100 nM. Moreover, the AC50 in assay [2] (setting [5]) and in assay [2] (setting [6]) was 1000 to 10000 nM each time.
Turning to `Cc1cn2nc(-c3ccc4c(=O)n([C@@H]5CCN(C)[C@H](C)C5)ncc4c3)cc(C)c2n1` [Compound 277], the IC50 in assay [1] is 1000 to 10000 nM; in assay [3] it was 100 to 1000 nM; in assay [4], < 100 nM. Besides, the AC50 in assay [2] (setting [5]) and in assay [2] (setting [6]) was 100 to 1000 nM throughout.
Turning to `Cc1cn2cc(-n3cnc4cc(N5CCNCC5)ccc4c3=O)cc(F)c2n1` [Compound 228, 3-(8-fluoro-2-methylimidazo[1,2-a]pyridin-6-yl)-7-(piperazin-1-yl)quinazolin-4(3H)-one], the IC50 in assay [1], in assay [3] and in assay [4] was 100 to 1000 nM throughout. Also, the AC50 in assay [2] (setting [5]) and in assay [2] (setting [6]) was 100 to 1000 nM throughout.
Regarding `Cn1cc2cc(-n3cnc4cc(C5=CC6CCC(C5)N6)ccc4c3=O)ccc2n1` (centres unmarked) [Compound 160, 7-(8-azabicyclo[3.2.1]oct-2-en-3-yl)-3-(2-methyl-2H-indazol-5-yl)quinazolin-4(3H)-one], the IC50 in assay [1], in assay [3] and in assay [4] was > 10000 nM each time. Besides, the half-maximal activity concentration (AC50) in assay [2] (setting [5]) and in assay [2] (setting [6]) was > 10000 nM throughout.
For `Cc1nc2c(F)cc(-c3ccc4c(=O)n(C5CCNCC5)cnc4c3)cc2s1` [Compound 285], the IC50 in assay [1] was > 10000 nM; in assay [3], 1000 to 10000 nM; in assay [4], < 100 nM. Also, the AC50 in assay [2] (setting [5]) is 1000 to 10000 nM; in assay [2] (setting [6]), > 10000 nM.
As for `CCN1CCC(n2ncc3cc(-c4cc(C)c5nc(C)cn5n4)ccc3c2=O)CC1` [Compound 266], the results for the IC50 in assay [1], in assay [3] and in assay [4] were 100 to 1000 nM, < 100 nM and < 100 nM, respectively. Also, the AC50 in assay [2] (setting [5]) and in assay [2] (setting [6]) was < 100 nM throughout.
In the case of `O=c1c2ccc(-c3cn[nH]c3)cc2cnn1C1CCNCC1` [Compound 261], the IC50 in assay [1] is > 10000 nM; in assay [3] it was > 10000 nM; in assay [4], 1000 to 10000 nM. In addition, the AC50 in assay [2] (setting [5]) and in assay [2] (setting [6]) was > 10000 nM throughout.

Source of the values: US20230159496A1, “COMPOUNDS AND METHODS FOR MODULATING SPLICING” (REMIX THERAPEUTICS INC., priority 2020, published 2023).
